Active and inactive are the calls of the source. The calls are words filed in the database; no cut-off is given here.

The test system of one test is Mus musculus. Nature of the test: Plasma triglyceride lowering activity in swiss albino mice was determined after 30 mg/kg compound administered for 6 days. It counts as functional.
The molecule `CC(C)OC(=O)C(C)(C)Oc1ccc(C(=O)c2ccc(Cl)cc2)cc1` [FENOFIBRATE] yielded an Activity of 36%.

The subject of a further test is Mus musculus. Nature of the test: Plasma triglyceride lowering activity in swiss albino mice was determined after 3 mg/kg compound administered for 6 days. Format: functional.
In turn, `CCOc1cc2ccc(OCCn3c(CC)nc(C)cc3=O)cc2oc1=O` had an Activity of 26%.

As for `CCOc1cc2ccc(OC(C)(C)C(=O)O)cc2oc1=O`, the Activity worked out at 16%.

`CCOc1cc2ccc(OCCn3ncc4ccccc4c3=O)cc2oc1=O` showed an Activity of 45%.

For `CCOC(=O)c1cc2ccc(OCCc3nc(-c4ccccc4)oc3C)cc2oc1=O`, the Activity is reported as 2%.

In the case of `CCOc1cc2ccc(OCCn3ccc4ccccc43)cc2oc1=O`, the Activity was determined as 27%.

Consider `Cc1oc(-c2ccccc2)nc1CCOc1ccc2cc(C(=O)O)c(=O)oc2c1`, for which the Activity is listed as 32%.

Molecule `CCOc1cc2ccc(OCCc3nc(-c4ccccc4)oc3C)cc2oc1=O` had an Activity of 31%.

`CC(=O)Nc1cc2ccc(OCCc3nc(-c4ccccc4)oc3C)cc2oc1=O` displayed an Activity of 2%.

Consider `CCOc1cc2ccc(OCc3ccccc3F)cc2oc1=O`, for which the Activity is listed as 25%.

On to `CCOC(Cc1ccc(OCCN2c3ccccc3Oc3ccccc32)cc1)C(=O)O` (configuration not stated), for which the Activity is 47%.

Another test relates to Mus musculus. As to the kind of experiment: Plasma triglyceride lowering activity in swiss albino mice was determined after 3 mg/kg compound administered for 6 days; Not effective. Also on record: dose 3 mg/kg. Format: functional, organism-based.
Regarding `CCOc1cc2ccc(OCCn3c(CC)nc4ccccc4c3=O)cc2oc1=O`, the result was inactive.

Consider `CCOc1cc2ccc(OCCN3c4ccccc4Oc4ccccc43)cc2oc1=O`, for which the result was inactive.

In the case of `CC(=O)Nc1cc2ccc(OCCN(C)c3nc4ccccc4o3)cc2oc1=O`, the outcome was inactive.

Take `CCOc1cc2ccc(OCCN(C)c3nc4ccccc4o3)cc2oc1=O`: the result was inactive.

As to `CCOc1cc2ccc(OCCn3ncc4cc(C)ccc4c3=O)cc2oc1=O`, the result was inactive.

On to `O=C(O)c1cc2ccc(OCCn3ncc4ccccc4c3=O)cc2oc1=O`, for which the result was inactive.

(Values after ChEMBL document CHEMBL1136134, “Novel coumarin derivatives of heterocyclic compounds as lipid-lowering agents” (2003).)
